Experimental data taken from patent US20120083505A1, “Use of opioid receptor antagonists for acute treatment of paraphilic arousal states” (priority 2009, published 2012).

What was measured:
[1] = tested on: obsessive sexual desire; conditions: two cases; regular fixed dosage regimen over a longer period; after several treatments; cited from earlier work
[2] = tested on: patients with paraphilic patterns of sexual excitation/arousal; test: Case reports: acute nasal naloxone in two paedophilic patients, self-rated impulse control; format: in vivo, human; conditions: one or two puffs of nasal spray, 0.2 mg Naloxonhydrochloride per puff
Text: In the clinical application (two patients with paraphilic patterns of sexual excitation/arousal, both paedophiles, but with individual symptomatology) the following observations were made:
The patient is a person with paedophile inclination towards sexually immature girls (in addition to their predominant orientation towards adult women). In their first marriage they had repeatedly abused the child of their spouse […] (touching the genitals of the child, as well as having themself touched until reaching the climax). These crimes have not yet become known or led to any form of legal prosecution, and this first marriage is divorced since several years. Owing to their job as music teacher the patient was increasingly in contact with girls of the preferred age during the recent two years; the patient was very worried (and this worry was justified) that they might exploit the situation for the sexual abuse of their pupils. In the course of treatment at the Institute for Sexual Medicine of the Charité University Clinic of Berlin the patient has changed their professional field so that they are mainly involved in the treatment of grown-ups. […]

Structure (SMILES) | frequency of obsessive sexual desire [1] | sexual interest in the child ([2]; patient 1 (marked expression of symptoms)) | sexual interest in child one ([2]; patient 2 (moderate expression of symptoms))
O=C1CC[C@@]2(O)[C@H]3Cc4ccc(O)c5c4[C@@]2(CCN3CC2CC2)C1O5 (stereo partly drawn) [Naltrexon, 17-cyclopropylmethyl-3,14-dihydroxy-4,5-epoxy-morphinan-6-on] | reduction in frequency of obsessive sexual desire could be observed | – | –
C=CCN1CC[C@]23c4c5ccc(O)c4O[C@H]2C(=O)CC[C@@]3(O)[C@H]1C5 [naloxone, 17-allyl-3,14-dihydroxy-4,5-epoxy-morphinan-6-on] | – | sufficient reduction of their sexual interest in the child | reduction of their sexual interest in child one
